Test results taken from ChEMBL document CHEMBL1131037, “Structure-based design, synthesis, and biological evaluation of irreversible human rhinovirus 3C protease inhibitors. 2. Peptide structure-activity studies” (J Med Chem, 1998).

How the values were obtained:
rhinovirus B14 [1] = test: Cytotoxic activity against HRV-14 in cell culture; assay type: functional, rhinovirus 14; conditions: Rhinovirus B
[2] = molecular target: T1, Human rhinovirus A protease (Human rhinovirus sp.) (UniProt Q4U254); test: Binding affinity on human Rhinovirus 3C protease (rhinovirus serotype 14)
T1 sequence (whole entry): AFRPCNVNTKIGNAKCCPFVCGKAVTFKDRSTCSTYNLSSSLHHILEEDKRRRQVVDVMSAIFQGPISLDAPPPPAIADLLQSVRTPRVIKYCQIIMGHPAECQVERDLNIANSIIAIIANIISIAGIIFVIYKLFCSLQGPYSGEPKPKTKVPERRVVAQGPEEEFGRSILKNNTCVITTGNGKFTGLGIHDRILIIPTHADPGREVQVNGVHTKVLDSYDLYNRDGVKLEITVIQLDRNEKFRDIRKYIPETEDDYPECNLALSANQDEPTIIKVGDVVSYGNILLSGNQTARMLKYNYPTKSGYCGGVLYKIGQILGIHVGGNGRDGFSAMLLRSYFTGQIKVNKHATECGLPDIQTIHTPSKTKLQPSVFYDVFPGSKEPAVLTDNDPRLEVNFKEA

[3] = molecular target: T1, Human rhinovirus A protease (Human rhinovirus sp.); test: Binding affinity on human Rhinovirus 3C protease (rhinovirus serotype 16)
[4] = molecular target: T1, Human rhinovirus A protease (Human rhinovirus sp.); test: (§1) Binding affinity on human Rhinovirus 3C protease (rhinovirus serotype 2); assay type: functional
rhinovirus B14 [5] = test: Antiviral activity against HRV-14 in cell culture; assay type: functional, organism-based; conditions: Rhinovirus B
HeLa = test: Compound was tested for antiviral activity against HRV-2 in cell culture; assay type: functional, cell-based; conditions: Homo sapiens
[6] = molecular target: T1, Human rhinovirus A protease (Human rhinovirus sp.); test: as §1
[7] = molecular target: T1, Human rhinovirus A protease (Human rhinovirus sp.); test: Binding affinity on human Rhinovirus 3C protease (rhinovirus serotype 14); Slow

Compound | CC50 (rhinovirus B14 [1]) [µM] | K obs / 1 [2] [M⁻¹ s⁻¹] | K obs / 1 [3] [M⁻¹ s⁻¹] | K obs / 1 [4] [M⁻¹ s⁻¹] | EC50 (rhinovirus B14 [5]) [µM] | EC50 (HeLa) [µM] | K obs / 1 [6] [M⁻¹ s⁻¹] | K obs / 1 [7]
CCOC(=O)/C=C/[C@H](CCC(N)=O)NC(=O)[C@H](CC1CCCCC1)NC(=O)[C@H](CC(C)C)NC(=O)OCc1ccccc1 | > 320 | 16300 | 3500 | 700 | 1.9 |  |  | 
CCOC(=O)/C=C/[C@H](CCC(N)=O)NC(=O)[C@H](Cc1ccccc1)NC(=O)[C@H](CC(C)C)NC(=O)SCC | > 320 | 91300 | 20000 |  | 0.46 | 1 | 8900 | 
CCC[C@H](NC(=O)[C@H](CC(C)C)NC(=O)OCc1ccccc1)C(=O)N[C@H](/C=C/C(=O)OCC)CCC(N)=O | > 320 | 2300 | 1200 |  | 5 |  | 600 | 
CCOC(=O)/C=C/[C@H](CCC(N)=O)NC(=O)[C@H](Cc1ccc(C)cc1)NC(=O)[C@H](CC(C)C)NC(=O)OCc1ccccc1 | > 320 | 59400 | 5300 |  | 0.18 |  | 1400 | 
CCOC(=O)/C=C/[C@H](CCC(N)=O)NC(=O)[C@H](Cc1ccc(OC)cc1)NC(=O)[C@H](CC(C)C)NC(=O)OCc1ccccc1 | > 320 | 29000 | 3400 |  | 1.7 | 14 | 1100 | 
CCOC(=O)/C=C/[C@H](CCC(N)=O)NC(=O)[C@H](Cc1cccs1)NC(=O)[C@H](CC(C)C)NC(=O)OCc1ccccc1 | > 100 | 20000 | 4500 |  | 0.56 |  | 1800 | 
CCOC(=O)/C=C/[C@H](CCC(N)=O)NC(=O)[C@H](Cc1ccc(OCC)cc1)NC(=O)[C@H](CC(C)C)NC(=O)OCc1ccccc1 | > 320 | 4200 |  |  | > 320 |  |  | 
CCOC(=O)/C=C/[C@H](CCC(N)=O)NC(=O)[C@H](Cc1ccccc1)NC(=O)[C@H](CC(C)C)NC(=O)OC1CCCCC1 | > 100 | 15500 |  |  | 7.6 |  |  | 
CCOC(=O)/C=C/[C@H](CCC(N)=O)NC(=O)[C@H](Cc1ccccc1)NC(=O)[C@H](CSC)NC(=O)OCc1ccccc1 | > 100 | 35200 |  |  | 0.18 |  |  | 
CCOC(=O)/C=C/[C@H](CCC(N)=O)NC(=O)[C@H](Cc1ccccc1)NC(=O)[C@H](CC(C)C)NC(=O)CCO | > 320 | 4500 |  |  | 19 |  |  | 
CCOC(=O)/C=C/[C@H](CCC(N)=O)NC(=O)[C@H](Cc1ccc(OP(=O)(O)O)cc1)NC(=O)[C@H](CC(C)C)NC(=O)OCc1ccccc1 | > 320 | 1200 |  |  | 14 |  |  | 
CCOC(=O)/C=C/[C@H](CCC(N)=O)NC(=O)[C@H](CCC(=O)O)NC(=O)[C@H](CC(C)C)NC(=O)OCc1ccccc1 | > 320 | 200 |  |  | > 320 |  |  | 
CCOC(=O)/C=C/[C@H](CCC(N)=O)NC(=O)[C@H](CC)NC(=O)[C@H](CC(C)C)NC(=O)OCc1ccccc1 | > 320 | 4500 |  |  | 6 |  |  | 
CCOC(=O)/C=C/[C@H](CCC(N)=O)NC(=O)[C@H](Cc1ccccc1)NC(=O)[C@H](CC(C)C)NC(=O)C(C)(C)C | > 100 | 8200 |  |  | 1.8 |  |  | 
CCOC(=O)/C=C/[C@H](CCC(N)=O)NC(=O)[C@H](Cc1ccccc1)NC(=O)[C@H](CC(C)C)NC(=O)c1ccc2ccccc2c1 | > 320 | 21000 |  |  | 1 |  |  | 
CCOC(=O)/C=C/[C@H](CCC(N)=O)NC(=O)[C@H](Cc1ccccc1)NC(=O)[C@@H](NC(=O)OCc1ccccc1)C(C)(C)CO | > 100 | 40000 |  |  | 1.3 |  |  | 
CCOC(=O)/C=C/[C@H](CCC(N)=O)NC(=O)[C@H](Cc1ccccc1)NC(=O)[C@H](CC(C)C)NC(=O)OCc1ccccc1C | > 100 | 41800 |  |  | 1 |  |  | 
CCOC(=O)/C=C/[C@H](CCC(N)=O)NC(=O)[C@H](Cc1ccccc1)NC(=O)[C@H](CC(C)C)NC(=O)SCc1ccccc1 | 320 | 280000 | 75000 |  | 0.27 | 1.9 | 28400 | 
CCOC(=O)/C=C/[C@H](CCC(N)=O)NC(=O)OCc1ccccc1 | > 100 | 4.5 |  |  | > 100 |  |  | 
CCOC(=O)/C=C/[C@H](CCC(N)=O)NC(=O)[C@H](Cc1ccccc1)NC(=O)[C@H](CC(C)C)NC(=O)[C@H](C)NC(C)=O | > 100 | 43400 |  |  | 20 |  |  | 
CCOC(=O)/C=C/[C@H](CCC(N)=O)NC(=O)[C@H](Cc1ccc(COC)cc1)NC(=O)[C@H](CC(C)C)NC(=O)OCc1ccccc1 | > 320 | 7100 |  |  | 39 |  |  | 
CCOC(=O)/C=C/[C@H](CCC(N)=O)NC(=O)[C@H](Cc1ccc(OC(C)=O)cc1)NC(=O)[C@H](CC(C)C)NC(=O)OCc1ccccc1 | > 320 | 1200 |  |  | 11 |  |  | 

Compound | CC50 (rhinovirus B14 [1]) [µM] | K obs / 1 [2] [M⁻¹ s⁻¹] | K obs / 1 [3] [M⁻¹ s⁻¹] | K obs / 1 [4] [M⁻¹ s⁻¹] | EC50 (rhinovirus B14 [5]) [µM] | EC50 (HeLa) [µM] | K obs / 1 [6] [M⁻¹ s⁻¹] | K obs / 1 [7]
CCOC(=O)/C=C/[C@H](CCC(N)=O)NC(=O)[C@H](Cc1ccccc1)NC(=O)[C@H](CC(C)C)NC(=O)OC | > 320 | 9100 |  |  | 1.3 |  |  | 
CCOC(=O)/C=C/[C@H](CCC(N)=O)NC(=O)[C@H](Cc1ccccc1)NC(=O)[C@@H](NC(=O)OCc1ccccc1)[C@@H](C)CC | > 100 | 31700 |  |  | 0.79 |  |  | 
CCOC(=O)/C=C/[C@H](CCC(=O)N(C)C)NC(=O)[C@H](Cc1ccccc1)NC(=O)[C@H](CC(C)C)NC(=O)OCc1ccccc1 | > 100 | 60 |  |  | 4 |  |  | 
CCOC(=O)/C=C/[C@H](CCC(N)=O)NC(=O)CNC(=O)[C@H](CC(C)C)NC(=O)OCc1ccccc1 | > 320 |  |  |  | 141 |  |  | Slow
CCOC(=O)/C=C/[C@H](CCC(N)=O)NC(=O)[C@H](Cc1ccccc1)NC(=O)[C@H](CSCc1ccccc1)NC(=O)OCc1ccccc1 | > 100 | 97000 |  |  | 0.2 |  |  | 
CCOC(=O)/C=C/[C@H](CCC(N)=O)NC(=O)[C@H](Cc1ccccc1)NC(=O)[C@@H](NC(=O)OCc1ccccc1)[C@H](C)O | > 320 | 38900 |  |  | 1.8 |  |  | 
CCOC(=O)/C=C/[C@H](CCC(N)=O)NC(=O)[C@H](Cc1ccccc1)NC(=O)[C@H](CC(C)C)NC(=O)c1ccccc1 | > 320 | 9600 |  |  | 5.2 |  |  | 
CCOC(=O)/C=C/[C@H](CCC(N)=O)NC(=O)[C@H](Cc1ccc(C(N)=O)cc1)NC(=O)[C@H](CC(C)C)NC(=O)OCc1ccccc1 | 177 | 9600 |  |  | > 177 |  |  | 
CCOC(=O)/C=C/[C@H](CCC(N)=O)NC(=O)[C@H](Cc1ccccc1)NC(=O)[C@H](CC(C)C)NC(=O)CO | > 320 | 2100 |  |  | 30 |  |  | 
CCOC(=O)/C=C/[C@H](CCC(N)=O)NC(=O)[C@H](Cc1ccccc1)NC(=O)OCc1ccccc1 | > 100 | 400 |  |  | 5.6 |  |  | 
CCOC(=O)/C=C/[C@H](COC(N)=O)NC(=O)[C@H](Cc1ccccc1)NC(=O)[C@H](CC(C)C)NC(=O)OCc1ccccc1 | > 320 | 5600 |  |  | 1.6 |  |  | 
CCOC(=O)/C=C/[C@H](CCC(N)=O)NC(=O)[C@H](Cc1ccccc1)NC(=O)[C@H](CCCN1CCOCC1)NC(=O)OCc1ccccc1 | > 100 | 43300 |  |  | 7.1 |  |  | 
CCOC(=O)/C=C/[C@H](CCC(N)=O)NC(=O)[C@H](Cc1ccccc1)NC(=O)[C@H](CC(C)C)NC(=O)OC(C)(C)C | > 100 | 700 |  |  | 4.5 |  |  | 
CCOC(=O)/C=C/[C@H](CCC(N)=O)NC(=O)[C@H](Cc1ccccc1)NC(=O)[C@H](C)NC(=O)OCc1ccccc1 | > 320 | 11300 |  |  | 2 |  |  | 
CCOC(=O)/C=C/[C@H](CCC(N)=O)NC(=O)[C@H](Cc1ccccc1)NC(=O)[C@@H](NC(=O)OCc1ccccc1)C1CCCCC1 | > 100 | 36200 |  |  | 1 |  |  | 
CCOC(=O)/C=C/[C@H](CCC(N)=O)NC(=O)[C@H](CSCC)NC(=O)[C@H](CC(C)C)NC(=O)OCc1ccccc1 | > 320 | 3000 |  |  | 10 |  |  | 
CCOC(=O)/C=C/[C@H](CCC(N)=O)NC(=O)[C@H](Cc1ccc(CCO)cc1)NC(=O)[C@H](CC(C)C)NC(=O)OCc1ccccc1 | > 320 | 43100 | 1300 |  | 3.5 |  | 700 | 
CCOC(=O)/C=C/[C@H](CCC(N)=O)NC(=O)[C@H](Cc1ccccc1)NC(=O)CNC(=O)OCc1ccccc1 | > 320 | 3800 |  |  | 5.6 |  |  | 
CCOC(=O)/C=C/[C@H](CCC(N)=O)NC(=O)[C@H](Cc1ccccc1)NC(=O)[C@H](CC(C)C)NC(=O)C1CCCC1 | > 320 | 23700 |  |  | 0.6 |  |  | 
CCOC(=O)/C=C/[C@H](CCC(N)=O)NC(=O)[C@H](C)NC(=O)[C@H](CC(C)C)NC(=O)OCc1ccccc1 | > 320 | 1300 |  |  | 20 |  |  | 
CCOC(=O)/C=C/[C@H](CCC(N)=O)NC(=O)[C@H](Cc1ccc(F)cc1)NC(=O)[C@H](CC(C)C)NC(=O)OCc1ccccc1 | > 320 | 46000 | 9200 |  | 1.8 | 5.6 | 2400 | 
